Test results: paper PMC8704432, “Isolation, Structure Determination of Sesquiterpenes from Neurolaena lobata and Their Antiproliferative, Cell Cycle Arrest-Inducing and Anti-Invasive Properties against Human Cervical Tumor Cells” (Pharmaceutics, 2021)
Read-outs that look alike come from different tables or passages of the source.

How the values were obtained:
MRC-5 (human fibroblast) = assay: Antiproliferative MTT assay, MRC-5; format: cell-based
Protocol: (§1) Antiproliferative effect of the isolated compounds were determined in vitro using SiHa (HPV 16+), HeLa (HPV 18+), C33A (HPV negative) human cervical cell lines, NIH-3T3 mouse embryonic and MRC-5 human fibroblast cells by means of MTT ([3-(4,5-dimethylthiazol-2-yl)-2,5-diphenyltetrazolium bromide]) assay. Briefly, a limited number of human cancer cells (5000/well for SiHa and HeLa cells, 10,000/well in case of C33A cells) were seeded onto a 96-well microplate and became attached to the bottom of the well overnight. On the second day of the procedure, the test substances were added in two concentrations (10.0 and 30.0 µM) in order to obtain preliminary data and then the compounds were applied in serial dilution (applied final concentrations were: 0.1, 0.3, 1.0, 3.0, 10.0, 30.0 µM). Further details of the experiment were described in ref. [30]. All in vitro experiments were carried out on two 96-well dishes with at least five parallel wells [31].

[1] = tested on: NIH/3T3 (mouse embryonic fibroblast); assay: Antiproliferative MTT assay, NIH/3T3; format: cell-based
Protocol: as §1

[2] = tested on: SiHa (HPV 16+) human cervical cell line; assay: Antiproliferative MTT assay, SiHa; format: cell-based; conditions: for IC50: read-out: Calculated IC50 Values (μM) [95% CI]; for inhibition at 10 µM / inhibition at 30 µM: read-out: Growth Inhibition Values (%) ± SEM
Protocol: as §1

[3] = tested on: HeLa (HPV 18+) human cervical cell line; assay: Antiproliferative MTT assay, HeLa; format: cell-based; conditions: for IC50: read-out: Calculated IC50 Values (μM) [95% CI]; for inhibition at 10 µM / inhibition at 30 µM: read-out: Growth Inhibition Values (%) ± SEM
Protocol: as §1

[4] = tested on: C33A (HPV negative) human cervical cell line; assay: Antiproliferative MTT assay, C33A; format: cell-based; conditions: for inhibition at 10 µM / inhibition at 30 µM: read-out: Growth Inhibition Values (%) ± SEM
Protocol: as §1

SiHa cells [5] = assay: Wound healing assay; format: cell-based, human
Protocol: In order to assess antimetastatic activity of the tested compound, wound healing assay was performed. The assay was done with specific wound healing assay chambers (Ibidi GmbH, Gräfelfing, Germany). SiHa cells were collected and 35,000 cells were seeded into both chambers of the insert. Cells were let to be attached to the plate surface during an overnight incubation at 37 °C in 5% CO2 atmosphere and then the inserts were removed. Cell debris was removed by a washing step with PBS. Test compounds were added to the wells in increasing concentrations in 2% FBS containing medium for 24 and 48 h. Migration of the cells into the wound site was visualized by phase-contrast inverted microscope (Axiovert 40, Zeiss, Thornwood, NY, USA). Images were taken with CCD camera at definite intervals and the migration of the cells was calculated as the ratio of wound closure by ImageJ software.

SiHa cells [6] = assay: Cell cycle analysis by flow cytometry; format: cell-based, human; conditions: 48 or 72 h treatment
Protocol: Cell cycle analysis was performed as described in [32, 33].

[7] = tested on: GLC4 human small cell lung carcinoma; set-up: method as in PMID 8657743; conditions: GLC4 cells; read-out: IC50 (cytotoxicity); cited from earlier work
[8] = tested on: COLO 320 human colorectal cancer cells; set-up: method as in PMID 8657743; conditions: COLO 320 cells; read-out: IC50 (cytotoxicity); cited from earlier work
[9] = MRC-5, MTT, read-out: Calculated IC50 Values (μM) [95% CI]
[10] = NIH/3T3, MTT, read-out: Calculated IC50 Values (μM) [95% CI]
[11] = Homo sapiens, C-33-A, read-out: Calculated IC50 Values (μM) [95% CI], C33A, MTT
[12] = Homo sapiens, MRC5, MRC-5, MTT, read-out: Calculated IC50 Values (μM) [95% CI]
[13] = Homo sapiens, MRC5, MRC-5, 10 μM, MTT, read-out: Growth Inhibition Values (%) ± SEM
[14] = Homo sapiens, MRC5, MRC-5, 30 μM, MTT, read-out: Growth Inhibition Values (%) ± SEM
[15] = Mus musculus, NIH3T3, NIH/3T3, MTT, read-out: Calculated IC50 Values (μM) [95% CI]
[16] = Mus musculus, NIH3T3, NIH/3T3, 10 μM, MTT, read-out: Growth Inhibition Values (%) ± SEM
[17] = Mus musculus, NIH3T3, NIH/3T3, 30 μM, MTT, read-out: Growth Inhibition Values (%) ± SEM
[18] = read-out: Calculated IC50 Values (μM) [95% CI], C33A, MTT
[19] = Homo sapiens, MRC5, read-out: Growth Inhibition Values (%) ± SEM
[20] = Mus musculus, NIH3T3, read-out: Growth Inhibition Values (%) ± SEM

SMILES	inhibition at 10 µM ([2]; Homo sapiens, 10 μM) [%]	inhibition at 30 µM ([2]; Homo sapiens, 30 μM) [%]	IC50 ([2]; Homo sapiens) [µM]	inhibition at 10 µM ([3]; Homo sapiens, 10 μM) [%]	inhibition at 30 µM ([3]; Homo sapiens, 30 μM) [%]	IC50 ([3]; Homo sapiens) [µM]	IC50 [4, 11] [µM]	inhibition at 10 µM ([4]; Homo sapiens, C-33-A) [%]	inhibition at 30 µM ([4]; Homo sapiens, C-33-A) [%]	other results
N.N.[Cl][Pt][Cl] [Cispl., cisplatin, reference compound]	–	–	–	–	–	–	–	–	–	Growth Inhibition Values (%) ± SEM (MRC-5 (human fibroblast); MRC-5, 30 μM, MTT): 70.65 ± 1.34%; IC50 (MRC-5 (human fibroblast); [9]): 5.77 µM; Growth Inhibition Values (%) ± SEM ([1]; NIH/3T3, 10 μM, MTT): 73.88 ± 0.46%; Growth Inhibition Values (%) ± SEM ([1]; NIH/3T3, 30 μM, MTT): 97.10 ± 0.15%; IC50 [1, 10]: 5.5 µM; Growth Inhibition Values (%) ± SEM ([2]; 10 μM): 60.98 ± 0.92%; Growth Inhibition Values (%) ± SEM ([2]; 30 μM): 88.95 ± 0.53%; IC50 [2]: 4.29 µM; Growth Inhibition Values (%) ± SEM ([3]; 10 μM): 32.23 ± 1.16%; Growth Inhibition Values (%) ± SEM ([3]; 30 μM): 93.70 ± 0.82%; IC50 [3]: 12.1 µM; Growth Inhibition Values (%) ± SEM ([4]; C33A, 10 μM, MTT): 77.17 ± 1.21%; Growth Inhibition Values (%) ± SEM ([4]; C33A, 30 μM, MTT): 97.50 ± 0.13%; IC50 ([4]; C33A, MTT, read-out: Calculated IC50 Values (μM) [95% CI]): 5.85 µM
C=C1C(=O)O[C@@H]2C[C@@H](C)C3=CC(=O)[C@](C)(O3)[C@H](OC(=O)CC(C)C)[C@@H](O)[C@@H]12 [Compound 1, 8β-Hydroxy-9α-isovaleroyloxycalyculatolide]	77.93 ± 0.56	92.1 ± 0.73	4.86	20.4 ± 0.62	81.8 ± 1.7	16.8	5.89	90 ± 2.54	91.79 ± 0.22	–
COC[C@@H]1C(=O)O[C@@H]2C[C@@H](C)C3=CC(=O)[C@](C)(O3)[C@H](O)[C@@H](OC(=O)CC(C)C)[C@@H]12 [Compound 2, Lobatolide A]	< 20	< 20	–	< 20	21.6 ± 2.42	–	–	< 20	36.6 ± 2.95	–
C=C1C(=O)O[C@@H]2/C=C(/C)C3=CC(=O)[C@](C)(O3)[C@H](OC(=O)CC(C)C)[C@@H](O)[C@@H]12 [Compound 3, 8β-hydroxy-9α-isovaleroyloxyatripliciolide]	60.6 ± 1.58	78.8 ± 1.23	7.81	91.42 ± 0.34	96.6 ± 1.17	4.76	6.82	79.2 ± 3.33	94.46 ± 0.21	IC50 (MRC-5 (human fibroblast); [12]): 6.67 µM; inhibition at 10 µM (MRC-5 (human fibroblast); [13]): 88.1 ± 1.22%; inhibition at 30 µM (MRC-5 (human fibroblast); [14]): 97.58 ± 0.1%; IC50 [1, 15]: 4.12 µM; inhibition at 10 µM [1, 16]: 92.96 ± 0.56%; inhibition at 30 µM [1, 17]: 98.15 ± 0.13%
C=C1C(=O)O[C@@H]2/C=C(/C)C3=CC(=O)[C@](C)(O3)[C@H](OC(C)=O)[C@@H](OC(=O)CC(C)C)[C@@H]12 [Compound 4, Lobatin C]	79.8 ± 1.47	94.62 ± 0.27	2.22	83.9 ± 1.8	90.1 ± 1.03	5.1	2.05	97.27 ± 0.18	97.19 ± 0.41	–
COC[C@H]1C(=O)O[C@@H]2C[C@@H](C)/C=C\C(=O)[C@](C)(O)[C@H](OC(C)=O)[C@@H](OC(=O)CC(C)C)[C@H]21 [Compound 5, Lobatolide B]	< 20	65.5 ± 2.52	–	< 20	63.9 ± 3.23	–	–	50.5 ± 3.49	90 ± 1.4	–
C=C1C(=O)OC2C=C(C)C(OC(C)=O)CC3OC3(C)CC(OC(=O)CC(C)C)C12 (centres unmarked) [Compound 6, Lobatolide C]	84.2 ± 2.32	84.8 ± 1.89	3.2 to 3.6	< 20	91.9 ± 1.23	15.7	3.2 to 3.6	96.55 ± 0.22	96.72 ± 0.33	IC50 (MRC-5 (human fibroblast); [12]): > 11 µM; inhibition at 10 µM (MRC-5 (human fibroblast); [13]): < 20%; inhibition at 30 µM (MRC-5 (human fibroblast); [14]): 73 ± 1.64%; IC50 (MRC-5 (human fibroblast); [9]): 11.9 µM; Wound closure (SiHa cells [5]; 1.5 µM, 48 h (control 70%)): 47%; Wound closure (SiHa cells [5]; 3 µM, 24 h (control 30%)): 12%; Wound closure (SiHa cells [5]; 3 µM, 48 h (control 70%)): 18%; IC50 [1, 15]: > 11 µM; inhibition at 10 µM [1, 16]: 40.7 ± 2.92%; inhibition at 30 µM [1, 17]: 96.8 ± 0.25%; IC50 [1, 10]: 11.2 µM; Cell cycle distribution (SiHa cells [6]): significant concentration-dependent accumulation of cells in the S phase; IC50 [2]: 3.24 µM; IC50 [4, 18]: 3.53 µM
C=C1C(=O)O[C@@H]2[C@@H](CC3=C4[C@@H](C[C@@H](C)/C=C\C(=O)[C@](C)(O)[C@H](OC(C)=O)[C@H]4OC(=O)CC(C)C)OC3=O)[C@@H](C)C3=CC(=O)[C@](C)(O3)[C@H](O)[C@@H](OC(=O)CC(C)C)[C@@H]12 [Compound 7, Lobatolide D]	77.2 ± 1.04	93.5 ± 0.42	6.02	91.87 ± 0.72	96.44 ± 0.1	6	6.62	94.66 ± 0.19	95.18 ± 0.31	IC50 (MRC-5 (human fibroblast); Homo sapiens, MRC5, read-out: Calculated IC50 Values (μM) [95% CI]): 15.4 µM; inhibition at 10 µM (MRC-5 (human fibroblast); [19]): < 20%; inhibition at 30 µM (MRC-5 (human fibroblast); [19]): 97.63 ± 0.27%; IC50 ([1]; Mus musculus, NIH3T3, read-out: Calculated IC50 Values (μM) [95% CI]): 5.68 µM; inhibition at 10 µM [1, 20]: 90.7 ± 1.2%; inhibition at 30 µM [1, 20]: 98.06 ± 0.19%
C=C1CC[C@@H](O)[C@]2(C)CC[C@@H](C(C)C)[C@H](O)[C@@H]12 [Compound 9, Volenol]	< 20	35.7 ± 1.29	–	< 20	37.3 ± 2.65	–	–	< 20	26.7 ± 2.73	–
CC(C)[C@@H]1CC[C@@]2(C)C(=O)CCC(CO)=C[C@@H]12 [Compound 10, (+)-aphanamol I]	< 20	< 20	–	< 20	36.5 ± 1.55	–	–	< 20	< 20	–
C=C1C(=O)O[C@@H]2/C=C(/C)C3=CC(=O)[C@](C)(O3)[C@H](O)[C@@H](OC(=O)CC(C)C)[C@@H]12 [Lobatin B]	–	–	–	–	–	–	–	–	–	IC50 [7]: 0.6 µM; IC50 [8]: 1.1 µM
C=C1C(=O)O[C@@H]2C[C@@H](C)/C=C\C(=O)[C@@](C)(O)[C@H](OC(C)=O)[C@@H](OC(=O)CC(C)C)[C@@H]12 [Neu B, neurolenin B, reference compound]	88.73 ± 0.36	93.42 ± 0.33	< 1.4	94 ± 0.59	94.81 ± 0.37	< 1.4	–	98.29 ± 0.03	97.91 ± 0.15	IC50 [7]: 1.1 µM; IC50 (MRC-5 (human fibroblast); [12]): 5.18 µM; inhibition at 10 µM (MRC-5 (human fibroblast); [13]): 94.26 ± 0.23%; inhibition at 30 µM (MRC-5 (human fibroblast); [14]): 97.46 ± 0.21%; IC50 [1, 15]: < 1.4 µM; inhibition at 10 µM [1, 16]: 98.11 ± 0.09%; inhibition at 30 µM [1, 17]: 98.02 ± 0.05%; IC50 [1, 10]: 1.31 µM; IC50 [2]: 1.33 µM; IC50 [3]: 1.24 µM; IC50 [8]: 1.2 µM; IC50 [4, 18]: < 1.4 µM
